Drawing on patent publication US10266497B2 (ABIDE THERAPEUTICS, INC., priority 2017, dated 2019), this text covers inhibition and IC50 for eleven molecules.

Usually IC50 stands for the concentration that inhibits the measured activity by half.

Experiment [1] deals with T1, FAAH (Homo sapiens, UniProt O00519).
T1 sequence (O00519 1-579): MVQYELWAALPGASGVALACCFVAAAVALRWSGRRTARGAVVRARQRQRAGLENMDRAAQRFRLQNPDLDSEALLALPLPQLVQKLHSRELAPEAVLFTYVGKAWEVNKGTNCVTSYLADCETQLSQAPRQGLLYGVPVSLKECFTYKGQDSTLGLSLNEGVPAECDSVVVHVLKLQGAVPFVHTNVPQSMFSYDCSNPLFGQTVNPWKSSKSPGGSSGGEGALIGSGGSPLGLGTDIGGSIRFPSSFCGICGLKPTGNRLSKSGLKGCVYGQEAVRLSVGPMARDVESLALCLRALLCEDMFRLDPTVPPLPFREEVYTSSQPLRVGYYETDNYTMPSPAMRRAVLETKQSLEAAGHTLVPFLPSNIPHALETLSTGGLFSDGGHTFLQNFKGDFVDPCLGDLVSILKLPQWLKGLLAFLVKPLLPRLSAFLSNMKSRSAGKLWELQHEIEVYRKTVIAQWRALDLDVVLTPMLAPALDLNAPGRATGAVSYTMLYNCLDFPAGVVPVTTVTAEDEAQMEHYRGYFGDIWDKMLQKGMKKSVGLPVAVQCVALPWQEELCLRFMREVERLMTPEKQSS
The experiment in a line: In vitro competitive activity-based protein profiling, FAAH, human. Conditions: for inhibition at 1 µM: read-out: FAAH % inh. 1 μM (human).

Experiment [2] has as its target T2, FAAH (Mus musculus, UniProt O08914).
T2 sequence (O08914 1-579): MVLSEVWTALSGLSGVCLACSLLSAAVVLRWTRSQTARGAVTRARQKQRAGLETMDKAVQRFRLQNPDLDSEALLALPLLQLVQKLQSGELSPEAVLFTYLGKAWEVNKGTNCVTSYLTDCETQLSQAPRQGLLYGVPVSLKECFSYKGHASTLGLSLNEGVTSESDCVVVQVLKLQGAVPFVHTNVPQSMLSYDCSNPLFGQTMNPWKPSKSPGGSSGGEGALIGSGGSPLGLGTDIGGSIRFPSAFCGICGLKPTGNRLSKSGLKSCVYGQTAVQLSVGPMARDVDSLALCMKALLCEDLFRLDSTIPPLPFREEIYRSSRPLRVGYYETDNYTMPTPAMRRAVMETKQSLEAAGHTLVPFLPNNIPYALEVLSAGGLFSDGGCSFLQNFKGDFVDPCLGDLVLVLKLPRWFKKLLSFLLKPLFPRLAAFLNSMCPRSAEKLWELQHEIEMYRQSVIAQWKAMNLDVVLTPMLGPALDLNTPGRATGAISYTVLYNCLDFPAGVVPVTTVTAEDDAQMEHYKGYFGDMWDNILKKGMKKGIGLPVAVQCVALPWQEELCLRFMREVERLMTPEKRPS
The experiment in a line: Mouse brain proteomes from inhibitor treated mice (oral gavage, sacrificed 4 h after administration), FAAH. Format: in vivo. Also noted: mouse brain membrane fraction for mouse assays; from tissue; host or cells: mouse brain (membrane fraction in vitro; brain proteomes of treated C57Bl/6J mice in vivo). Conditions: 5 mg/kg oral gavage, brain proteome 4 h after administration, read-out: FAAH % inh. 5 mg/kg (mouse).

The target of experiment [3] is T3, MAGL (Homo sapiens, UniProt Q99685).
T3 sequence (Q99685 1-303): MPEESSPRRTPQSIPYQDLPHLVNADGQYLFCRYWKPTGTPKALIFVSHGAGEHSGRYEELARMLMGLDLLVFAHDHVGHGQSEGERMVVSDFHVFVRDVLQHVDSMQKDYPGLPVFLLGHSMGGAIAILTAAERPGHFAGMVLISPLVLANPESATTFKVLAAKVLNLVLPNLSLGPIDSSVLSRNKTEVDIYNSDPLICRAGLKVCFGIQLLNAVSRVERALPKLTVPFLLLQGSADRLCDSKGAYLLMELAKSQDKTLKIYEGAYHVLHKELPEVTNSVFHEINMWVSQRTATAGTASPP
The experiment in a line: In vitro competitive activity-based protein profiling, MAGL, human. Conditions: read-out: MAGL % inh. 1 μM (human).

Experiment [4] deals with T4, MAGL (Mus musculus, UniProt O35678).
T4 sequence (O35678 1-303): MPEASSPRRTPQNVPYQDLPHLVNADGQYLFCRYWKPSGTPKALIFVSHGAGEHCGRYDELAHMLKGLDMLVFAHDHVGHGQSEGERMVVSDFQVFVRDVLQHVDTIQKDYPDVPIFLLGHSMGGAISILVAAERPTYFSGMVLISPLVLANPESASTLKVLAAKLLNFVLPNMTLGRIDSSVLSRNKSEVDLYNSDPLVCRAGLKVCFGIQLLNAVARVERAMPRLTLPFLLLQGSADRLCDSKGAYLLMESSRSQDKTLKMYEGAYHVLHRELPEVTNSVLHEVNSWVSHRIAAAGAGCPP
The experiment in a line: In vitro competitive activity-based protein profiling, MAGL, mouse. As to conditions: read-out: MAGL % inh. 1 μM (mouse).

For experiment [5], the target named is T4, MAGL. Put plainly: Mouse brain proteomes from inhibitor treated mice (oral gavage, sacrificed 4 h after administration). In kind it is in vivo. Set-up: mouse brain membrane fraction for mouse assays; from tissue; host or cells: mouse brain (membrane fraction in vitro; brain proteomes of treated C57Bl/6J mice in vivo). As to conditions: 5 mg/kg oral gavage, brain proteome 4 h after administration, read-out: MAGL % inh. 5 mg/kg (mouse).

Experiment [6] deals with T2, FAAH. Put plainly: In vitro competitive activity-based protein profiling, FAAH, mouse. As to conditions: read-out: FAAH % inh. 1 μM (mouse).

SMILES strings stand for the structures.

As for `O=C(O)c1ccn(C(=O)N2CCN(Cc3ccc(Cl)cc3N3CCCC3)CC2)n1` [Example 107, 1-(4-(4-chloro-2-(pyrrolidin-1-yl)benzyl)piperazine-1-carbonyl)-1H-pyrazole-3-carboxylic acid], the inhibition at 1 µM at FAAH [1] is 0 to 25%; on MAGL [3], greater than 75%; at MAGL [4], greater than 75%; at FAAH [6], 0 to 25%. Further, the inhibition at 5 mg/kg on FAAH [2] and on MAGL [5] was 0 to 25% in each case.
Turning to `O=C(O)c1ccn(C(=O)N2CCC3(CCCN3Cc3cc4ccc(C(F)(F)F)cc4s3)CC2)n1` [Example 185, 1-(1-((6-(trifluoromethyl)benzo[b]thiophen-2-yl)methyl)-1,8-diazaspiro[4.5]decane-8-carbonyl)-1H-pyrazole-3-carboxylic acid], the inhibition at 1 µM on FAAH [1] was 0 to 25%; on MAGL [3], greater than 75%; at MAGL [4] it was greater than 75%; on FAAH [6], 0 to 25%. Moreover, the inhibition at 5 mg/kg on FAAH [2] and at MAGL [5] was 0 to 25% each time.
Take `O=C(O)c1ccn(C(=O)N2CC3CN(Cc4cc(Cl)cc(C(F)(F)F)c4)CC3C2)n1` (centres unmarked) [Example 124, 1-(5-(3-chloro-5-(trifluoromethyl)benzyl)octahydro-pyrrolo[3,4-c]pyrrole-2-carbonyl)-1H-pyrazole-3-carboxylic acid]: the IC50 at FAAH [1] fell in the range of 100 to 1000 nM. For the same molecule, the inhibition at 1 µM at FAAH [1] was 50 to 75%; at MAGL [3], greater than 75%; on MAGL [4], greater than 75%; at FAAH [6], greater than 75%. Besides, the inhibition at 5 mg/kg at FAAH [2] lay within 25 to 50%; at MAGL [5], 0 to 25%.
Take `O=C(O)c1nn(C(=O)N2CCC3(CCN(Cc4cc(Cl)ccc4C(F)(F)F)C3)CC2)cc1Cl` [Example 133, 4-chloro-1-(2-(5-chloro-2-(trifluoromethyl)benzyl)-2,8-diazaspiro[4.5]decane-8-carbonyl)-1H-pyrazole-3-carboxylic acid]: on FAAH [1], the IC50 was in the range of 100 to 1000 nM. For the same molecule, the inhibition at 1 µM on FAAH [1], on MAGL [3], at MAGL [4] and at FAAH [6] was greater than 75% throughout. Also, the inhibition at 5 mg/kg on FAAH [2] and on MAGL [5] was 0 to 25% in each case.
For `CN(Cc1ccc(C(F)(F)F)cc1-c1nccs1)C1(C)CCN(C(=O)n2ccc(C(=O)O)n2)CC1` [Example 10, 1-(4-methyl-4-(methyl(2-(thiazol-2-yl)-4-(trifluoromethyl)benzyl)amino)piperidine-1-carbonyl)-1H-pyrazole-3-carboxylic Acid], the inhibition at 1 µM on FAAH [1] is 0 to 25%; at MAGL [3], greater than 75%; on MAGL [4], greater than 75%; on FAAH [6], 0 to 25%. Further, the inhibition at 5 mg/kg on FAAH [2] and at MAGL [5] was 0 to 25% each time.
As for `NC(=O)c1ccn(C(=O)N2CCN(Cc3cccc(C(F)(F)F)c3N3CCOCC3)CC2)n1` [Example 199, 1-(4-(2-morpholino-3-(trifluoromethyl)benzyl)piperazine-1-carbonyl)-1H-pyrazole-3-carboxamide], on FAAH [1], the half-inhibitory concentration (IC50) was in the range of 100 to 1000 nM. Also, the inhibition at 1 µM on FAAH [1], on MAGL [3], at MAGL [4] and at FAAH [6] was greater than 75% throughout. Also, the inhibition at 5 mg/kg on FAAH [2] was 0 to 25%; at MAGL [5] it was greater than 75%.
Turning to `O=C(O)c1ccn(C(=O)N2CCN(Cc3ccc(C(F)(F)F)cc3N3CCN4CCC[C@@H]4C3)CC2)n1` [Example 48, (R)-1-(4-(2-(hexahydropyrrolo [1,2-a]pyrazin-2(1H)-yl)-4-(trifluoromethyl)benzyl)piperazine-1-carbonyl)-1H-pyrazole-3-carboxylic acid], the inhibition at 1 µM was 0 to 25% on FAAH [1], greater than 75% on MAGL [3], greater than 75% at MAGL [4] and 0 to 25% at FAAH [6]. The inhibition at 5 mg/kg at FAAH [2] and on MAGL [5] was 0 to 25% throughout.
For `O=C(O)c1ccn(C(=O)N2CCN(Cc3cccc(C(F)(F)F)c3N3CCCC3)CC2)n1` [Example 90, 1-(4-(2-(pyrrolidin-1-yl)-3-(trifluoromethyl)benzyl)piperazine-1-carbonyl)-1H-pyrazole-3-carboxylic acid], the inhibition at 1 µM at FAAH [1] is 0 to 25%; on MAGL [3] it was greater than 75%; at MAGL [4], greater than 75%; at FAAH [6], 0 to 25%. The inhibition at 5 mg/kg on FAAH [2] and on MAGL [5] was 0 to 25% throughout.
With `O=C(O)c1ccn(C(=O)N2CCN(Cc3ccc(C(F)(F)F)cc3N3CCCCC3)CC2)n1` [Example 100, 1-(4-(2-(piperidin-1-yl)-4-(trifluoromethyl)benzyl)piperazine-1-carbonyl)-1H-pyrazole-3-carboxylic acid], the 50% inhibitory concentration (IC50) at FAAH [1] fell in the range of 1000 to 10000 nM. In addition, the inhibition at 1 µM on FAAH [1] is 0 to 25%; at MAGL [3], greater than 75%; on MAGL [4], greater than 75%; on FAAH [6] it was 0 to 25%. For the same molecule, the inhibition at 5 mg/kg on FAAH [2] and on MAGL [5] was 0 to 25% each time.
As for `C[C@@H]1CCCN1c1cc(C(F)(F)F)ccc1CN1CCN(C(=O)n2ccc(C(=O)O)n2)CC1` [Example 95, (R)-1-(4-(2-(2-methylpyrrolidin-1-yl)-4-(trifluoromethyl)benzyl)piperazine-1-carbonyl)-1H-pyrazole-3-carboxylic acid], the inhibition at 1 µM was 0 to 25% at FAAH [1], greater than 75% on MAGL [3], greater than 75% on MAGL [4] and 0 to 25% at FAAH [6]. The inhibition at 5 mg/kg at FAAH [2] and at MAGL [5] was 0 to 25% each time.
On to `O=C(O)c1ccn(C(=O)N2CCN(Cc3cccc(Oc4cc(C(F)(F)F)ccn4)c3)CC2)n1` [Example 57, 1-(4-(3-((4-(trifluoromethyl)pyridin-2-yl)oxy)benzyl)piper-azine-1-carbonyl)-1H-pyrazole-3-carboxylic acid], for which, at FAAH [1], the IC50 fell in the range of 100 to 1000 nM. The inhibition at 1 µM on FAAH [1] is 50 to 75%; at MAGL [3] it was greater than 75%; at MAGL [4] it was greater than 75%; on FAAH [6], 50 to 75%. For the same molecule, the inhibition at 5 mg/kg on FAAH [2] and at MAGL [5] was 0 to 25% in each case.
